Test results taken from patent publication US20230338362A1 (priority 2020, published 2023).
Peptide text beside a SMILES is read from it. * marks the point of attachment. Cbz = O=C(OCc1ccccc1)*; CH2F = FC*

Key:
[1] = test system: macrophages treated with SARS-CoV-2 Spike protein; type: cell-based, human; further: test concentration or dose not given here
[2] = test system: IRAK1, NF-κB, MAPKs, IRAK4 (MyD88 signaling); experiment: MyD88 signaling in human macrophages; type: cell-based
[3] = test system: macrophages treated with SARS-CoV-2 Spike protein; type: cell-based, human; remark: listed apart in the source; further: test concentration or dose not given here
[4] = test system: VERO-E6 cells enriched for angiotensin converting enzyme 2 receptor (ACE-2); experiment: In vitro toxicity, cell viability assay in VERO-E6 cells in the absence of virus; settings: Table I, positive controls; absence of SARS-CoV-2 virus
[5] = test system: SARS-CoV-2; experiment: SARS-CoV-2 inhibition, cell viability assay (CellTiter-Glo) in VERO-E6 cells enriched for ACE-2; type: cell-based; settings: Table I, positive controls; VERO-E6 cells enriched for ACE-2 plus SARS-CoV-2; read-out: IC50
[6] = human macrophages, through interaction with MyD88

Row | SMILES | apoptosis by activation of caspase 3 [1] | apoptosis by caspase 3 activation [1] | NF-κB translocation into the nucleus [2] | activation of IRAK1, NF-κB, and MAPKs [2, 6] | expression of IRAK4 [2, 6] | anti-inflammatory cytokines [3] | expression of cytokine modulators / anti-inflammatory cytokines [3] | expression of pro-inflammatory cytokines [3] | expression of the anti-inflammatory cytokine IL-10 [3] | multiple pro-inflammatory cytokines [3] | pro-inflammatory cytokines [3] | CC50 [4] [µM] | IC50 [5] [µM]
1 | O=C(OC[C@H]1O[C@@H](OC(=O)c2cc(O)c(O)c(O)c2)[C@H](OC(=O)c2cc(O)c(O)c(O)c2)[C@@H](OC(=O)c2cc(O)c(O)c(O)c2)[C@@H]1OC(=O)c1cc(O)c(O)c(O)c1)c1cc(O)c(O)c(O)c1 | selectively induces apoptosis | not observed to induce apoptosis | inhibited NF-κB translocation into the nucleus | potently reduced the activation of IRAK1, NF-κB, and MAPKs | increasing expression of IRAK4 | inducing anti-inflammatory cytokines such as IL-10 | activated expression of cytokine modulators IL-10 and IFN-γ | inhibited expression of pro-inflammatory cytokines IL-1α, VEGF, IL-1β, IL-2, IL-4, IL-5, IL-6, IL-8, IL-12p70, IL-13, GM-CSF, GRO, MCP-1, MIP-1α, MIP-1β, MMP-9, RANTES, and TNF-α | increasing expression of the anti-inflammatory cytokine IL-10 | suppressed multiple pro-inflammatory cytokines such as IL-1β, TNF-α, IL-6 IL-8, IL-12, MCP-1 and MIP-1α | selectively inhibited pro-inflammatory cytokine, such as IL-1α, VEGF, IL-1β, IL-2, IL-4, IL-5, IL-6, IL-8, IL-12p70, IL-13, GM-CSF, GRO, MCP-1, MIP-1α, MIP-1β, MMP-9, RANTES, and TNF-α |  | 
2 | CC(C)C[C@H](NC(=O)OCc1ccccc1)C(=O)N[C@@H](CC(C)C)C(=O)N[C@@H](Cc1ccc(O)cc1)C(=O)CF [Calpain Inhibitor IV, reference compound] (Cbz-Leu-Leu-Tyr-CH2F) |  |  |  |  |  |  |  |  |  |  |  | > 7.17 | 0.12
3 | CCC(CC)COC(=O)[C@H](C)N[P@](=O)(OC[C@H]1O[C@@](C#N)(c2ccc3c(N)ncnn23)[C@H](O)[C@@H]1O)Oc1ccccc1 [Remdesivir, remdesivir, reference compound] |  |  |  |  |  |  |  |  |  |  |  | > 30 | 
